Legend:
Assay type in all cases: cell-based, human
[1] = system: hESC-derived WT1+ epicardial cells; experiment: EMT induction in passaged day 15 WT1+ epicardial cells; qRT-PCR, flow cytometry, immunostaining; details: for WT1 expression over time after EMT initiation: qRT-PCR, eight-day culture
Experimental: FIG. 11. WT1^+ epicardial cells undergo EMT in response to TGFβ1 and bFGF treatment. (a) Scheme of the protocol used for EMT induction. Day 15 WT1+ cultures are passaged, allowed to settle for 1 day and then treated with TGFβ1 (5 ng/ml) for 4 days followed by no treatment (TGFβ), sequential treatment with […] (5 ng/ml) for 4 days followed by bFGF (10 ng/ml) for 4 days (TGFβ+bFGF), or bFGF (10 ng/ml) treatment for 8 days (bFGF). No treatment of the cultures serves as a control. (b) Flow cytometric analyses of cultures 8 days following the initiation of EMT for the cell surface mesenchymal marker CD90. Gray filled histogram indicates control culture fluorescence intensity. (c) qRT-PCR-based expression of the epicardial gene WT1 and the EMT-induced genes SNAI1 and SNAI2 on days 2, 4, 6 and 8 after EMT initiation. Values are expressed as fold change to experiment-matched pre-passaged day 15 WT1+ cultures. Error bars represent standard deviation from the mean of the values from three independent experiments (N=3); *P≤0.05, **P≤0.01 compared to no treatment control.
FIG. 12. WT1 and ZO1 expression is lost in response to EMT. Phase contrast and fluorescent immunostaining showing cell morphology and the expression of ZO1 and WT1 proteins in epicardial cultures 8 days after EMT initiation with the indicated factors.
FIG. 13. EPDCs display characteristic expression of fibroblasts and vascular smooth muscle cell markers by fluorescent immunostaining. Fluorescent immunostaining showing α-Smooth muscle actin (SMA) and Vimentin (VIM) protein in cultures 8 days after EMT initiation with the indicated factors.
FIG. 14. EPDCs display characteristic expression of fibroblasts and vascular smooth muscle cell markers by qRT-PCR. qRT-PCR-based expression analyses of the smooth muscle genes […], MYH11, TAGLN and SMTN and the epicardial/cardiac fibroblast gene TCF21 in the indicated cultures 8 days after EMT initiation. Values are expressed as fold change to experiment-matched pre-passaged day 15 WT1^+ epicardium cultures. Error bars represent standard deviation from the mean of the values from three independent experiments (N=3); *P≤0.05, **P≤0.01 compared to no treatment control cultures.
To determine if the hESC-derived WT1^+ epicardial-like cells can undergo EMT, an assay was designed in which D15 epicardial cells are passaged, allowed one day to recover, and then treated for a total of eight days with one of four treatment regimens. The regimens consisted of: 1) TGFβ-1 for four days followed by four days with no additional factor (TGFβ), 2) TGFβ-1 for four days followed by four days with bFGF (TGFβ+bFGF), 3) bFGF for eight days (bFGF) or 4) no additional factors for eight days (FIG. 11a). Following culture under the different conditions, the cells were harvested and analyzed by qRT-PCR and flow cytometry.

[2] = system: hESC epicardial-derived smooth muscle-like cells; experiment: Calcium transients of EMT-induced cells after norepinephrine (NE) and phenylephrine (PE) stimulation
Experimental: (a) The total proportion of actively cycling cells in EMT-induced cultures was measured for the indicated treatments. Treatment with TGFβ+bFGF generated populations with the largest proportion of actively cycling cells in response to agonists. Bars represent standard error of the mean; N=3/group; *P<0.05, **P<0.01 compared by one-way ANOVA with Tukey post hoc test. (b) The frequency of calcium cycles in actively cycling cells in the conditions as indicated at baseline and after NE and PE addition. Stacked bars represent the contribution to frequency of calcium cycling during baseline recording (hatched lines), and after NE (white) or PE (black) treatment. (c) The amplitude of calcium transients after NE and PE addition in the EMT induced cultures. No Treatment NE N=6 cells, PE N=4 cells; TGFβ NE N=6 cells, PE N=12 cells; TGFβ+bFGF NE N=13 cells, PE N=25 cells. *P<0.05 compared by one-way ANOVA with Tukey post hoc test. (d) The duration of calcium transients after NE and PE addition in the EMT induced cultures. […]
To test the contractile function of the smooth muscle-like cells generated following the EMT induced with TGFβ and TGFβ+bFGF, calcium transients were measured following stimulation with norepinephrine (NE) and phenylephrine (PE) using previously described methods^32. […]

WT1+ epicardial cells = experiment: ALDH1A2 expression (qRT-PCR) and Aldefluor staining (flow cytometry) after EMT induction; details: cultures in which EMT had been induced, versus non-treated passaged epicardial cells
From the text: FIG. 17. WT1^+ epicardial cells upregulate ALDH1A2 expression and display aldehyde dehydrogenase activity following passage. (a) qRT-PCR-based expression analyses of ALDH1A1, ALDH1A2 and ALDH1A3 in D15 WT^+ epicardial cultures and Day 15+8 post-passage non-treated epicardial cultures. Values are relative to the housekeeping gene TBP. Error bars represent standard deviation from the mean of the values from three independent experiments (N=3); *P≤0.05, **P≤0.01 compared to ALDH1A2 expression levels. (b) qRT-PCR-based expression analyses of ALDH1A2 on days 2, 4, 6 and 8 following the initiation of EMT. Values are expressed as fold change to experiment-matched pre-passaged day 15 WT1^+ epicardial cultures. Error bars represent standard deviation from the mean of the values from three independent experiments (N=3); *P≤0.05, **P≤0.01 compared to no treatment control cultures. (c) Flow cytometric analyses of Aldefluor on day 15 populations generated from cells treated from days 4 to 6 with DM (non-cardiac, non-epicardial), BMP4+XAV (cardiomyocytes) or BMP4+CHIR (WT1^+ epicardial cells). (d) Flow cytometry analyses of Aldefluor on WT1^+ epicardium-derived cultures 8 days following the initiation of EMT with the indicated treatments. […]

hPSC-derived Epi cells = experiment: Matrigel invasion assay eight days after EMT induction, confocal microscopy and 3D reconstruction; details: eight days following induction of EMT
From the text: (a) Representative fields of view in the XY plane (top view) and 3D reconstruction (side view) of the matrigel invasion assay on D8 after EMT induction.
(b) Maximum matrigel invasion depth on D8 following EMT initiation. Bars represent standard error of the mean of the values from three independent experiments (N=3); **P≤0.01 compared to non-treated controls as analyzed by Student's T-test.
It is well established that during heart development EPDCs, and in particular cardiac fibroblasts, invade the myocardial layer^33. To assess this potential of the hPSC-derived Epi cells, their ability to invade a 3D layer of Matrigel following induction of EMT with the different factors was measured. To enable us to easily track the migration of the cells, the Epi population was generated from GFP expressing hESCs^48. Matrigel invasion was monitored eight days following the induction of EMT by confocal microscopy and evaluated using 3D image reconstruction (FIG. 16a). […] Along with invasion, bFGF treatment also led to an increase in total cell number within the regions of interest (ROI). […] To further quantify the degree of invasion, the proportion of cells in each population that migrated to different depths was calculated. Virtually all of the cells in the non-induced, the TGFβ-induced and TGFβ+bFGF-induced populations were detected within the first 200 μm of the gel. In contrast, approximately half of the cells in the bFGF-induced population migrated beyond this depth, some as far as 600 μm.

[3] = qRT-PCR 8 days after EMT initiation

Substance	ZO1 (and WT1) expression by immunostaining ([1]; 8 days after EMT initiation)	vimentin (VIM) immunostaining ([1]; 8 days after EMT initiation, compared with bFGF alone)	α-smooth muscle actin (SMA) immunostaining ([1]; compared to bFGF or absence of factors)	expression of smooth muscle genes CNN1, MYH11, TAGLN, SMTN and fibroblast marker TCF21 [1, 3]	SNAI2 expression ([1]; qRT-PCR after EMT initiation)	WT1 expression over time after EMT initiation [1]	amplitude of calcium response ([2]; PE-treated, compared to control cultures)	calcium cycling rates ([2]; following PE stimulation, cells that exhibited calcium transients)	ALDH1A2 expression and Aldefluor staining (WT1+ epicardial cells)	Matrigel invasion (migratory behaviour, depth) (hPSC-derived Epi cells)	total cell number within the regions of interest (hPSC-derived Epi cells)	MYH11 expression [1, 3]	SNAI1 expression ([1]; qRT-PCR after EMT initiation)	proportion of cells that migrated beyond 200 μm (hPSC-derived Epi cells)	farthest depth of migration (hPSC-derived Epi cells; some cells)
TGFβ-1	internalized or lost	substantially brighter staining	higher levels	upregulated expression of CNN1, MYH11, TAGLN and SMTN but not TCF21	increases in SNAI2 expression	steady decreases in WT1 expression	greatest	faster calcium cycling rates than those in the non-induced control cultures	dramatically lower levels	little capacity to invade the Matrigel	56.8±9.5 cells per ROI				
bFGF	internalized or lost			expressed TCF21 in addition to CNN1, TAGLN and SMTN	increases in SNAI2 expression	did not decline below those of the control			dramatically lower levels	most migratory and invaded the matrigel to the greatest depth	379.7±40.5 cells per ROI	did not express MYH11	induced the expression of SNAI1	approximately half	≤ 600 μm
